{
  "source": "ChEMBL document CHEMBL6153057",
  "about": "“Novel Imidazotriazine Derivatives as IL-17 Modulators for Treating Inflammatory and Autoimmune Disorders” (ACS Med Chem Lett, 2025)",
  "experiment": "Antiinflammatory activity in human HDF cells assessed as inhibition of IL-17A/TNF-alpha-stimulated IL-6 release preincubated for 5 hrs followed by IL-17A/TNF-alpha stimulation and measured after 18 to 20 hrs by homogenous time-resolved FRET based assay",
  "format": "functional, cell-based",
  "data": [
    {"smiles": "CO[C@@H]1CCN(C(=O)[C@@H]2CCC(F)(F)CO2)[C@@H](c2cnn3cc([C@@H](NC(=O)c4ccnn4C)C4CCC(F)(F)CC4)nc3n2)C1", "values": [
      {"measurement": "IC50", "value": 39.8, "unit": "nM"}
    ]},
    {"smiles": "CO[C@@H]1CCN(C(=O)[C@@H]2CCC(F)(F)CO2)[C@H](c2cnn3cc([C@@H](NC(=O)c4ccnn4C)C4CCC(F)(F)CC4)nc3n2)C1", "values": [
      {"measurement": "IC50", "value": 3.16, "unit": "nM"}
    ]},
    {"smiles": "[2H]C([2H])([2H])O[C@@H]1CCN(C(=O)[C@@H]2CCC(F)(F)CO2)[C@H](c2cnn3cc([C@@H](NC(=O)c4ccnn4C)C4CCC(F)(F)CC4)nc3n2)C1", "values": [
      {"measurement": "IC50", "value": 3.98, "unit": "nM"}
    ]},
    {"smiles": "[2H]C([2H])([2H])O[C@@H]1CCN(C(=O)[C@@H]2CCC(F)(F)CO2)[C@@H](c2cnn3cc([C@@H](NC(=O)c4ccnn4C)C4CCC(F)(F)CC4)nc3n2)C1", "values": [
      {"measurement": "IC50", "value": 39.8, "unit": "nM"}
    ]}
  ]
}
